The target in one assay is T1, recombinant HlGST2 (Haemaphysalis longicornis, UniProt A0A2Z6FA39).
T1 construct: gene GST
Nature of the assay: CDNB conjugation kinetics with […] acaricide. It is filed as biochemical. Particulars: inhibitor, noncompetitive, 5 mM glutathione, CDNB 0.125-2 mM, pH 7.5, 25 °C.

In the next assay the target is T2, recombinant HlGST (Haemaphysalis longicornis, UniProt Q6JVN0).
T2 construct: gene GST
T2 sequence (Q6JVN0 1-223): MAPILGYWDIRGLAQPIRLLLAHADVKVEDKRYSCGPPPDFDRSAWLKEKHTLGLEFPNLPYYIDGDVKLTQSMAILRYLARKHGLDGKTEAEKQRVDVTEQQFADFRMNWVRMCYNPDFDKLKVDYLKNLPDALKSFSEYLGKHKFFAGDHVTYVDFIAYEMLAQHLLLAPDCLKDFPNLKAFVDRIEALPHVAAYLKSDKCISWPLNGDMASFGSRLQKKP
Nature of the assay: CDNB conjugation kinetics with […] acaricide. Particulars: 5 mM glutathione, CDNB 0.125-2 mM, pH 7.5, 25 °C. It is filed as biochemical.

T1 sequence (A0A2Z6FA39 1-230): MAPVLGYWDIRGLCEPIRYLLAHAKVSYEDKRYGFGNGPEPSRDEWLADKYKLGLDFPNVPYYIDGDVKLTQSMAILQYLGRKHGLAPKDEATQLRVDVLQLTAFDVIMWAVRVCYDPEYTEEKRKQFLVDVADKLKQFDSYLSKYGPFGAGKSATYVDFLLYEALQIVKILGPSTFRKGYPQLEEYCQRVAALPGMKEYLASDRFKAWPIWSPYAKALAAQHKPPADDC

Regarding `CC1(C)C(C=C(Cl)Cl)C1C(=O)OC(C#N)c1cccc(Oc2ccccc2)c1` (centres unmarked) [cypermethrin], the “CDNB conjugation kinetics with 0.1 mM acaricide” value (“CDNB conjugation kinetics” below) at recombinant HlGST2 was “chlorpyrifos and cypermethrin showed noncompetitive inhibition of recombinant HlGST2”; at recombinant HlGST (inhibitor, uncompetitive), “flumethrin and cypermethrin showed uncompetitive inhibition of recombinant HlGST”. With `CCOP(=S)(OCC)Oc1ccc2c(C)c(Cl)c(=O)oc2c1` [coumaphos], at recombinant HlGST (apparent activator (lowers Km for CDNB)), the “CDNB conjugation kinetics” value was “Coumaphos significantly decreased the Km of recombinant HlGST, indicating the apparent activation”. Take `CC1(C)C(C=C(Cl)c2ccc(Cl)cc2)C1C(=O)OC(C#N)c1ccc(F)c(Oc2ccccc2)c1` (centres unmarked) [flumethrin]: the “CDNB conjugation kinetics” value on recombinant HlGST (inhibitor, uncompetitive) was “flumethrin and cypermethrin showed uncompetitive inhibition of recombinant HlGST”. Regarding `CCOP(=S)(OCC)Oc1nc(Cl)c(Cl)cc1Cl` [chlorpyrifos], the “CDNB conjugation kinetics” value at recombinant HlGST2 was “chlorpyrifos and cypermethrin showed noncompetitive inhibition of recombinant HlGST2”.

(Values after PMC6085608, “Glutathione S-transferases play a role in the detoxification of flumethrin and chlorpyrifos in Haemaphysalis longicornis” (Parasites & Vectors, 2018).)
